Results reported in ChEMBL document CHEMBL1201862, “PubChem BioAssay data set” (2004).
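Growth conditions: 96-well plates. Treatment: test compound, 48 hours, 5 concentrations. Analysis: linear interpolation between bracketing concentrations; unreached endpoints set to highest concentration. Here, GI50 denotes the concentration required for 50% inhibition of growth.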 Active and inactive are the calls of the source. Rule as the data show it: active = GI50 up to about 1.1 µM and inactive = higher.

Legend:
Assay in all cases: NCI-60 cell line screen, 48 h
PC-3 = system: PC-3
MDA-MB-231 = system: MDA-MB-231
OVCAR-4 = system: OVCAR-4
ACHN = system: ACHN
NCI-H226 = system: NCI-H226
HCT-116 = system: HCT-116
NCI-H522 = system: NCI-H522
T47D = system: T47D
HOP-18 = system: HOP-18
NCI/ADR-RES = system: NCI/ADR-RES
EKVX = system: EKVX
IGROV-1 = system: IGROV-1
HCT-15 = system: HCT-15
Hs-578T = system: Hs-578T
NCI-H460 = system: NCI-H460
HT-29 = system: HT-29
UO-31 = system: UO-31
SF-295 = system: SF-295
SK-MEL-2 = system: SK-MEL-2
SNB-19 = system: SNB-19

Row | SMILES | GI50 (PC-3) | GI50 (MDA-MB-231) | GI50 (OVCAR-4) | GI50 (ACHN) | GI50 (NCI-H226) | GI50 (HCT-116) | GI50 (NCI-H522) | GI50 (T47D) | GI50 (HOP-18) | GI50 (NCI/ADR-RES) | GI50 (EKVX) | GI50 (IGROV-1) | GI50 (HCT-15) | GI50 (Hs-578T) | GI50 (NCI-H460) | GI50 (HT-29) | GI50 (UO-31) | GI50 (SF-295) | GI50 (SK-MEL-2) | GI50 (SNB-19)
1 | CC1CN1C(=O)NCCCCCCNC(=O)N1CC1C (stereo not given) | > 100 µM (inactive) | > 100 µM (inactive) | > 100 µM (inactive) | 9.53 µM (inactive) | > 75.7 µM (inactive) | 81.3 µM (inactive) | > 100 µM (inactive) | > 73.1 µM (inactive) | > 100 µM (inactive) | 78.7 µM (inactive) | > 100 µM (inactive) | > 100 µM (inactive) | > 100 µM | > 100 µM (inactive) | 2.61 µM (inactive) | > 100 µM (inactive) | 79.4 µM (inactive) | 54.3 µM (inactive) | > 100 µM (inactive) | > 86.7 µM (inactive)
2 | CCCCCCCCCCCCCCCCCCOCC(COP(=O)([O-])OCC[N+](C)(C)C)OC (stereo not given) [EDELFOSINE] | 7.19 µM (inactive) | 59.7 µM (inactive) | 26.6 µM (inactive) | > 72.8 µM (inactive) | 26.4 µM (inactive) | 14.7 µM (inactive) | 11.4 µM (inactive) | > 100 µM (inactive) | 13.3 µM (inactive) | 42.3 µM (inactive) | 44.3 µM (inactive) | 6.67 µM (inactive) | 3.36 µM | > 100 µM (inactive) | 7.05 µM (inactive) | 7.28 µM (inactive) | 27.4 µM (inactive) | 9.66 µM (inactive) | 31.3 µM (inactive) | 20.7 µM (inactive)
